{"source": "ChEMBL document CHEMBL4229569", "about": "“Structure-Based Design of 1-Heteroaryl-1,3-propanediamine Derivatives as a Novel Series of CC-Chemokine Receptor 5 Antagonists” (J Med Chem, 2018)", "key": {"[1]": {"assay": "Drug level in human liver cells assessed as CYP450-mediated compound formation treated with 4,4-Difluoro-N-(3-((1R,3S,5S)-3-(3-isopropyl-5-methyl-4H-1,2,4-triazol-4-yl)-8-azabicyclo[3.2.1]octan-8-yl)-1-(thiophen-3-yl)-propyl)cyclohexane-1-carboxamide by UPLC/Q-TOF mass spectrometric analysis", "format": "ADME, cell-based", "conditions": "recombinant enzyme; call rule not given here"}, "[2]": {"assay": "Drug level in dog liver cells assessed as CYP450-mediated compound formation treated with 4,4-Difluoro-N-(3-((1R,3S,5S)-3-(3-isopropyl-5-methyl-4H-1,2,4-triazol-4-yl)-8-azabicyclo[3.2.1]octan-8-yl)-1-(thiophen-3-yl)-propyl)cyclohexane-1-carboxamide by UPLC/Q-TOF mass spectrometric analysis", "format": "ADME, cell-based, Canis lupus familiaris", "conditions": "recombinant enzyme"}, "[3]": {"assay": "Drug level in rat liver cells assessed as CYP450-mediated compound formation treated with 4,4-Difluoro-N-(3-((1R,3S,5S)-3-(3-isopropyl-5-methyl-4H-1,2,4-triazol-4-yl)-8-azabicyclo[3.2.1]octan-8-yl)-1-(thiophen-3-yl)-propyl)cyclohexane-1-carboxamide by UPLC/Q-TOF mass spectrometric analysis", "format": "ADME, cell-based", "conditions": "recombinant enzyme"}, "[4]": {"assay": "Drug level in mouse liver cells assessed as CYP450-mediated compound formation treated with 4,4-Difluoro-N-(3-((1R,3S,5S)-3-(3-isopropyl-5-methyl-4H-1,2,4-triazol-4-yl)-8-azabicyclo[3.2.1]octan-8-yl)-1-(thiophen-3-yl)-propyl)cyclohexane-1-carboxamide by UPLC/Q-TOF mass spectrometric analysis", "format": "ADME, cell-based", "conditions": "recombinant enzyme"}, "[5]": {"assay": "Drug level in rat liver cells assessed as CYP450-mediated compound formation treated with maraviroc by Q-TOF mass spectrometric analysis", "format": "ADME, cell-based", "conditions": "recombinant enzyme"}, "[6]": {"assay": "Drug level in dog liver cells assessed as CYP450-mediated compound formation treated with maraviroc by Q-TOF mass spectrometric analysis", "format": "ADME, cell-based, Canis lupus familiaris", "conditions": "recombinant enzyme"}, "[7]": {"assay": "Drug level in human liver cells assessed as CYP450-mediated compound formation treated with maraviroc by Q-TOF mass spectrometric analysis", "format": "ADME, cell-based", "conditions": "recombinant enzyme"}, "[8]": {"molecular_target": "C-C chemokine receptor type 5 (Homo sapiens, UniProt P51681)", "sequence (P51681 whole entry)": "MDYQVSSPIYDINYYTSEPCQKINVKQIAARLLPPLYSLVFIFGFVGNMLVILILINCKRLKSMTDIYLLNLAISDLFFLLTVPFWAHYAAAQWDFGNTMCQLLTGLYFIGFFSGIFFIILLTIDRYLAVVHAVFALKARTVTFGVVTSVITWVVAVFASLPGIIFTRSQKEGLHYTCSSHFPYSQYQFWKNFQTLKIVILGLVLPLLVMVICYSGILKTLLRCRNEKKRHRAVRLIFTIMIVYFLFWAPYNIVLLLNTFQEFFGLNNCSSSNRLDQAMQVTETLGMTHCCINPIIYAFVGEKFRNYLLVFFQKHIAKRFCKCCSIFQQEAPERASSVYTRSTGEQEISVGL", "assay": "Antagonist activity at CCR5 (unknown origin) expressed in HEK293 cells co-expressing Galpha16 assessed as inhibition of RANTES-induced calcium flux preincubated for 10 mins followed by RANTES addition by fluo-4AM-based fluorescence assay", "format": "functional, cell-based"}, "[9]": {"assay": "Cytotoxicity against human TZM-bl cells after 48 hrs by MTT assay", "format": "cell-based"}, "[10]": {"assay": "Cmax in Sprague-Dawley rat at 20 mg/kg, po by LC-MS/MS analysis", "format": "ADME, organism-based", "set-up": "dose 20 mg/kg, route oral", "conditions": "in vivo"}, "[11]": {"assay": "Tmax in Sprague-Dawley rat at 20 mg/kg, po by LC-MS/MS analysis", "format": "ADME, organism-based", "conditions": "in vivo"}, "[12]": {"assay": "Half life in Sprague-Dawley rat at 20 mg/kg, po by LC-MS/MS analysis", "format": "ADME, organism-based", "conditions": "in vivo"}, "[13]": {"assay": "AUC (0 to infinity) in Sprague-Dawley rat at 20 mg/kg, po by LC-MS/MS analysis", "format": "ADME, organism-based", "set-up": "dose 20 mg/kg, route oral, time infinity", "conditions": "in vivo"}, "[14]": {"assay": "MRT in Sprague-Dawley rat at 20 mg/kg, po by LC-MS/MS analysis", "format": "ADME, organism-based", "conditions": "in vivo"}, "[15]": {"assay": "Oral bioavailability in Sprague-Dawley rat at 20 mg/kg by LC-MS/MS analysis", "format": "ADME, organism-based", "conditions": "in vivo"}, "[16]": {"assay": "Cmax in Sprague-Dawley rat at 10 mg/kg, iv by LC-MS/MS analysis", "format": "ADME, organism-based", "set-up": "dose 10 mg/kg, route intravenous", "conditions": "in vivo"}, "[17]": {"assay": "Tmax in Sprague-Dawley rat at 10 mg/kg, iv by LC-MS/MS analysis", "format": "ADME, organism-based", "conditions": "in vivo"}, "[18]": {"assay": "Half life in Sprague-Dawley rat at 10 mg/kg, iv by LC-MS/MS analysis", "format": "ADME, organism-based", "conditions": "in vivo"}, "[19]": {"assay": "AUC (0 to infinity) in Sprague-Dawley rat at 10 mg/kg, iv by LC-MS/MS analysis", "format": "ADME, organism-based", "set-up": "dose 10 mg/kg, time infinity, route intravenous", "conditions": "in vivo"}, "[20]": {"assay": "MRT in Sprague-Dawley rat at 10 mg/kg, iv by LC-MS/MS analysis", "format": "ADME, organism-based", "conditions": "in vivo"}, "[21]": {"assay": "Clearance in Sprague-Dawley rat at 10 mg/kg, iv by LC-MS/MS analysis", "format": "ADME, organism-based", "conditions": "in vivo"}, "[22]": {"molecular_target": "Voltage-gated inwardly rectifying potassium channel KCNH2 (Homo sapiens, UniProt Q12809)", "sequence (Q12809 whole entry)": "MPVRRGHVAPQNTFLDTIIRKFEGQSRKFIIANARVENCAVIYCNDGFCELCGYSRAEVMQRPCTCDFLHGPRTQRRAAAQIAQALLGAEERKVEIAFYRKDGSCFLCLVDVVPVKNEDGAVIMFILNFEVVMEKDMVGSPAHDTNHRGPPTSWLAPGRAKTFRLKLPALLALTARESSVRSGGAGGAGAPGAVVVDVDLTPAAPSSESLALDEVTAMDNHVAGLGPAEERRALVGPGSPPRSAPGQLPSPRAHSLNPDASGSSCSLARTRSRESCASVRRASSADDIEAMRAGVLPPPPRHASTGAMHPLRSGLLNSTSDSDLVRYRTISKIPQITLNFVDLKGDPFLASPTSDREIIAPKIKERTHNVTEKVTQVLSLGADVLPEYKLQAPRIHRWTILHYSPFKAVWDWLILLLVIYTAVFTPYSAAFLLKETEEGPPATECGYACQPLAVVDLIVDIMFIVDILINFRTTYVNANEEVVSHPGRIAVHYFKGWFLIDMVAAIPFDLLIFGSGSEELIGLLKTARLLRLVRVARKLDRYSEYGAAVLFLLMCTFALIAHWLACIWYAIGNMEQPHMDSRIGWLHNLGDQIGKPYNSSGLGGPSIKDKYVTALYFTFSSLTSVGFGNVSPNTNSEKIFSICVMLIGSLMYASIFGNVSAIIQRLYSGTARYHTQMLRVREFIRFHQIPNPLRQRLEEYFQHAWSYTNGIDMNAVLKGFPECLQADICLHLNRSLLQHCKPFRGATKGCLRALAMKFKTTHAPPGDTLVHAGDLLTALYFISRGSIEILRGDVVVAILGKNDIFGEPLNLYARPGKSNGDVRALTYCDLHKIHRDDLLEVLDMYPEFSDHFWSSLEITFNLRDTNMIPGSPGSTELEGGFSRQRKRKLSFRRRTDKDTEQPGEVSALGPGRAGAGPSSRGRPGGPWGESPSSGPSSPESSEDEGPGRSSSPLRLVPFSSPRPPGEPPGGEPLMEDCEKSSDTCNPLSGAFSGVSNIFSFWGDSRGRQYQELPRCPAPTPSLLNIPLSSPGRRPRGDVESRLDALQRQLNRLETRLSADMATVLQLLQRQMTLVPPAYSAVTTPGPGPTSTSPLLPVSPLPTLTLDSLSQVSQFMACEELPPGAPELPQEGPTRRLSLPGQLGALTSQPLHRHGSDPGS", "assay": "Inhibition of human ERG expressed in CHO cells at holding potential of -80 mV after 60 secs by patch clamp assay", "format": "cell-based"}, "[23]": {"molecular_target": "T1, Cytochrome P450 1A2 (Homo sapiens, UniProt P05177)", "T1 sequence (P05177 whole entry)": "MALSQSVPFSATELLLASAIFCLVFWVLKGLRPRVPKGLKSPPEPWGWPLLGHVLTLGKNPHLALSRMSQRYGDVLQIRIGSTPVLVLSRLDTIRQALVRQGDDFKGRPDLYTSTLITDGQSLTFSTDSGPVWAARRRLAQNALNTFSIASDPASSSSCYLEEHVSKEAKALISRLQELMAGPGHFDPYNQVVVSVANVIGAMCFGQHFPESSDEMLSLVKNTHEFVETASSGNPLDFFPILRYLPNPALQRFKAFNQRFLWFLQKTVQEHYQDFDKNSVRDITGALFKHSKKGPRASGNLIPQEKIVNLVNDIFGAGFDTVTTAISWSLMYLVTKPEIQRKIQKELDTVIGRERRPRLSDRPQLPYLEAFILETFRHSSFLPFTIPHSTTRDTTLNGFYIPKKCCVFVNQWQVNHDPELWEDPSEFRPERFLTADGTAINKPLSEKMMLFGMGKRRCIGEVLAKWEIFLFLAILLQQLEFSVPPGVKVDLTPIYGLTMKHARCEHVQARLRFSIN", "assay": "Inhibition of CYP1A2 (unknown origin)", "format": "ADME"}, "[24]": {"molecular_target": "Cytochrome P450 2C9 (Homo sapiens, UniProt P11712)", "sequence (P11712 whole entry)": "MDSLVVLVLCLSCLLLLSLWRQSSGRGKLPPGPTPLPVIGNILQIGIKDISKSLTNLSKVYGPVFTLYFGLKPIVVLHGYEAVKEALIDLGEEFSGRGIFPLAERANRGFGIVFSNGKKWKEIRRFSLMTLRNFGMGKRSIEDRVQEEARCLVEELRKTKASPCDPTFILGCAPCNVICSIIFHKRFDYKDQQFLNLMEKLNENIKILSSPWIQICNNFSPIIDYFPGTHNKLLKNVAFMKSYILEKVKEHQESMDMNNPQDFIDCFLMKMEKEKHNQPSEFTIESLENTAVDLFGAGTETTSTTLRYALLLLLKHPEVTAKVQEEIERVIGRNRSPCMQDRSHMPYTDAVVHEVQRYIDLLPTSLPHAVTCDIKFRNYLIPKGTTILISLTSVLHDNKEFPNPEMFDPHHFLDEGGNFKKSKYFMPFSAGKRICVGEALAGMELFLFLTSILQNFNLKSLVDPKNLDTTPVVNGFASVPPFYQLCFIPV", "assay": "Inhibition of CYP2C9 (unknown origin)", "format": "ADME"}, "[25]": {"molecular_target": "Cytochrome P450 2C19 (Homo sapiens, UniProt P33261)", "sequence (P33261 whole entry)": "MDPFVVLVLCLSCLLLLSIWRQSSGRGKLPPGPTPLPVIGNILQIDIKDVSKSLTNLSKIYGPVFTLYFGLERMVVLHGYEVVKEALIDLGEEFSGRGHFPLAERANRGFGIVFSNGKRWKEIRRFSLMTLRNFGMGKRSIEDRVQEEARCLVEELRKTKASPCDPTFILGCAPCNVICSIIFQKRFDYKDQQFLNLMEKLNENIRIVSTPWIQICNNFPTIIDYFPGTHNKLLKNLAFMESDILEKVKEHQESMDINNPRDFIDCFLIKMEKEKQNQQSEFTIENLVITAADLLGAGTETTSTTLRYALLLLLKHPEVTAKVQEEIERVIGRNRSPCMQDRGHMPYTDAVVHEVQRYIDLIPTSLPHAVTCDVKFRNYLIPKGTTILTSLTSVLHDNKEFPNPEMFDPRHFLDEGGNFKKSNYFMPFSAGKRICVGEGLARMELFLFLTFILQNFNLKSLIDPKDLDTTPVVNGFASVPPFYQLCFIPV", "assay": "Inhibition of CYP2C19 (unknown origin)", "format": "ADME"}, "[26]": {"molecular_target": "Cytochrome P450 2D6 (Homo sapiens, UniProt P10635)", "sequence (P10635 whole entry)": "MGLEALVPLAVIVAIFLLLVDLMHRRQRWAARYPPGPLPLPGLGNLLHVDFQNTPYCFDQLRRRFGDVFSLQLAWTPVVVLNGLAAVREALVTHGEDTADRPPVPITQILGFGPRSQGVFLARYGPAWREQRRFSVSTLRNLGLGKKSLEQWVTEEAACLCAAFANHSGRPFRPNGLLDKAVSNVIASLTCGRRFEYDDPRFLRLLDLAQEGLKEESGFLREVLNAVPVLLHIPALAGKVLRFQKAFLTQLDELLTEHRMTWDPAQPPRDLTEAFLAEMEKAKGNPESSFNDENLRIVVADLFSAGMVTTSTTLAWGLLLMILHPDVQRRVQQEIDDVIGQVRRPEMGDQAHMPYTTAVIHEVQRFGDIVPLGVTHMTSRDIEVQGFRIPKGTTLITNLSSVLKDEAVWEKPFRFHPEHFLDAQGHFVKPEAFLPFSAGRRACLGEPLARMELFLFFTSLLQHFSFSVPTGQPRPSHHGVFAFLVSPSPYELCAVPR", "assay": "Inhibition of CYP2D6 (unknown origin)", "format": "ADME"}, "[27]": {"molecular_target": "T2, Cytochrome P450 3A4 (Homo sapiens, UniProt P08684)", "T2 sequence (P08684 whole entry)": "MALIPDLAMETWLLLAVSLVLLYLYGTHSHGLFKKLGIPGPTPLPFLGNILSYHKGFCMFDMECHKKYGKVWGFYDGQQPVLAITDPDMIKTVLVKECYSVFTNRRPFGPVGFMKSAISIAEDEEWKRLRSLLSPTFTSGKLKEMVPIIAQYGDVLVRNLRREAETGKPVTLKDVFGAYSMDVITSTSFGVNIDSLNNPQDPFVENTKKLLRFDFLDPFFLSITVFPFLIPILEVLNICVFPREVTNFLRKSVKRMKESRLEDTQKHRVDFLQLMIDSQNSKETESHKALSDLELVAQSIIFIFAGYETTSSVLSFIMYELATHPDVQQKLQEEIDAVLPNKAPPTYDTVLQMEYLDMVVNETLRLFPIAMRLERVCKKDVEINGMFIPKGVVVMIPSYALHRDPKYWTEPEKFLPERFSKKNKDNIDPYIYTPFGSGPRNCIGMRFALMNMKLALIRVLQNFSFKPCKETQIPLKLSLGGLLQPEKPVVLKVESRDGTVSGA", "assay": "Inhibition of CYP3A4 (unknown origin) using midazolam as substrate", "format": "ADME"}, "[28]": {"molecular_target": "T2, Cytochrome P450 3A4", "assay": "Inhibition of CYP3A4 (unknown origin) using testosterone as substrate", "format": "ADME"}, "[29]": {"assay": "in vitro", "conditions": "human, TZM-bl cells", "description": "Therapeutic index, ratio of CC50 for human TZM-bl cells to EC50 for CCR5-dependent HIV1 SF162 infected in human TZM-bl cells"}, "[30]": {"assay": "in vitro", "conditions": "human, PBMC", "description": "Therapeutic index, ratio of CC50 for human PBMC to IC50 for CCR5-dependent HIV1 SF162 infected in human PBMC cells"}, "[31]": {"assay": "in vitro", "conditions": "human, HOS cells", "description": "Therapeutic index, ratio of CC50 for human HOS cells to IC50 for CCR5-dependent HIV1 SF162 infected in human HOS cells"}, "[32]": {"assay": "in vitro", "conditions": "human, PBMC", "remark": "listed apart in the source", "description": "Therapeutic index, ratio of CC50 for human PBMC to IC50 for CCR5-dependent HIV1 KM018 infected in human PBMC"}, "[33]": {"assay": "in vitro", "conditions": "human, PBMC", "remark": "listed apart in the source", "description": "Therapeutic index, ratio of CC50 for human PBMC to IC50 for CCR5-dependent HIV1 Ba-L infected in human PBMC"}, "[34]": {"assay": "in vitro", "conditions": "human, HOS cells", "remark": "listed apart in the source", "description": "Therapeutic index, ratio of CC50 for human HOS cells to IC50 for CCR5-dependent HIV1 Ba-L infected in human HOS cells"}, "[35]": {"assay": "in vitro", "conditions": "human, PM1 cells", "description": "Therapeutic index, ratio of CC50 for human PM1 cells to IC50 for CCR5-dependent HIV1 Ba-L infected in human PM1 cells"}, "[36]": {"tested_on": "Human immunodeficiency virus 1", "assay": "microbe, parasite or virus in culture", "conditions": "Human immunodeficiency virus 1, SF162, TZM-bl, 48 h", "description": "Antiviral activity against CCR5-dependent HIV1 SF162 infected in human TZM-bl cells assessed as reduction in virus infection measured after 48 hrs post infection by luciferase reporter gene assay"}, "[37]": {"tested_on": "Human immunodeficiency virus 1", "assay": "microbe, parasite or virus in culture", "conditions": "Human immunodeficiency virus 1, SF162, PBMC, 168 h", "description": "Antiviral activity against CCR5-dependent HIV1 SF162 infected in human PBMC assessed as reduction in virus infection measured after 7 days by luciferase reporter gene assay"}, "[38]": {"tested_on": "Human immunodeficiency virus 1", "assay": "microbe, parasite or virus in culture", "conditions": "Human immunodeficiency virus 1, SF162, HOS, 120 h", "description": "Antiviral activity against CCR5-dependent HIV1 SF162 infected in human HOS cells assessed as reduction in virus infection measured after 5 days by luciferase reporter gene assay"}, "[39]": {"tested_on": "Human immunodeficiency virus 1", "assay": "microbe, parasite or virus in culture", "conditions": "Human immunodeficiency virus 1, KM018, PBMC, 168 h", "description": "Antiviral activity against CCR5-dependent HIV1 KM018 infected in human PBMC assessed as reduction in virus infection measured after 7 days by luciferase reporter gene assay"}, "[40]": {"tested_on": "Human immunodeficiency virus 1", "assay": "microbe, parasite or virus in culture", "conditions": "Human immunodeficiency virus 1, Ba-L, PBMC, 168 h", "description": "Antiviral activity against CCR5-dependent HIV1 Ba-L infected in human PBMC assessed as reduction in virus infection measured 7 days by luciferase reporter gene assay"}, "[41]": {"tested_on": "Human immunodeficiency virus 1", "assay": "microbe, parasite or virus in culture", "conditions": "Human immunodeficiency virus 1, Ba-L, HOS, 120 h", "description": "Antiviral activity against CCR5-dependent HIV1 Ba-L infected in human HOS cells assessed as reduction in virus infection measured after 5 days by luciferase reporter gene assay"}, "[42]": {"tested_on": "Human immunodeficiency virus 1", "assay": "microbe, parasite or virus in culture", "conditions": "Human immunodeficiency virus 1, Ba-L, PM1, 120 h", "description": "Antiviral activity against CCR5-dependent HIV1 Ba-L infected in human PM1 cells assessed as reduction in virus infection measured after 5 days by luciferase reporter gene assay"}}}
{"molecule": "Cc1nnc(C(C)C)n1[C@@H]1C[C@H]2CC[C@@H](C1)N2CC[C@H](NC(=O)C1CCC(F)CC1)c1ccsc1", "note": "(some centres not stated)", "values": [{"measurement": "Drug uptake", "setting": "[1]", "result": "Active"}, {"measurement": "Drug uptake", "setting": "[2]", "result": "Active"}, {"measurement": "Drug uptake", "setting": "[3]", "result": "Active"}, {"measurement": "Drug uptake", "setting": "[4]", "result": "Active"}, {"measurement": "Drug uptake", "setting": "[5]", "result": "Active"}, {"measurement": "Drug uptake", "setting": "[6]", "result": "Active"}, {"measurement": "Drug uptake", "setting": "[7]", "result": "Active"}]}
{"molecule": "Cc1nnc(C(C)C)n1[C@@H]1C[C@H]2CC[C@@H](C1)N2CC[C@H](NC(=O)C1CCCCC1)c1cccs1", "values": [{"measurement": "IC50", "setting": "[8]", "result": 2.3, "unit": "nM"}, {"measurement": "CC50 at 48 h", "setting": "[9]", "result": "> 200000", "unit": "nM"}, {"measurement": "Cmax", "setting": "[10]", "result": 631, "unit": "ng/mL"}, {"measurement": "Tmax", "setting": "[11]", "result": 15, "unit": "min"}, {"measurement": "half-life", "setting": "[12]", "result": 69.6, "unit": "min"}, {"measurement": "AUC(0-inf)", "setting": "[13]", "result": 1510, "unit": "ng·h/mL"}, {"measurement": "MRT", "setting": "[14]", "result": 126, "unit": "min"}, {"measurement": "bioavailability", "setting": "[15]", "result": 14.8, "unit": "%"}, {"measurement": "Cmax", "setting": "[16]", "result": 4320, "unit": "ng/mL"}, {"measurement": "Tmax", "setting": "[17]", "result": 15, "unit": "min"}, {"measurement": "half-life", "setting": "[18]", "result": 18.6, "unit": "min"}, {"measurement": "AUC(0-inf)", "setting": "[19]", "result": 5110, "unit": "ng·h/mL"}, {"measurement": "MRT", "setting": "[20]", "result": 48, "unit": "min"}, {"measurement": "clearance", "setting": "[21]", "result": 32.7, "unit": "mL/min/kg"}, {"measurement": "IC50", "setting": "[22]", "result": 2060, "unit": "nM"}, {"measurement": "IC50", "setting": "[23]", "result": "> 25000", "unit": "nM"}, {"measurement": "IC50", "setting": "[24]", "result": "> 25000", "unit": "nM"}, {"measurement": "IC50", "setting": "[25]", "result": "> 25000", "unit": "nM"}, {"measurement": "IC50", "setting": "[26]", "result": 15100, "unit": "nM"}, {"measurement": "IC50", "setting": "[27]", "result": 12300, "unit": "nM"}, {"measurement": "IC50", "setting": "[28]", "result": 21700, "unit": "nM"}, {"measurement": "selectivity ratio", "setting": "[29]", "result": "> 18000"}, {"measurement": "selectivity ratio", "setting": "[30]", "result": 509}, {"measurement": "selectivity ratio", "setting": "[31]", "result": 7800}, {"measurement": "selectivity ratio", "setting": "[32]", "result": 529}, {"measurement": "selectivity ratio", "setting": "[33]", "result": 575}, {"measurement": "selectivity ratio", "setting": "[34]", "result": 27000}, {"measurement": "selectivity ratio", "setting": "[35]", "result": 44000}, {"measurement": "IC50", "setting": "[36]", "result": 11.1, "unit": "nM"}, {"measurement": "IC50", "setting": "[37]", "result": 524, "unit": "nM"}, {"measurement": "IC50", "setting": "[38]", "result": 43.7, "unit": "nM"}, {"measurement": "IC50", "setting": "[39]", "result": 504, "unit": "nM"}, {"measurement": "IC50", "setting": "[40]", "result": 464, "unit": "nM"}, {"measurement": "IC50", "setting": "[41]", "result": 12.5, "unit": "nM"}, {"measurement": "IC50", "setting": "[42]", "result": 8.2, "unit": "nM"}]}
